Consider 1 molecule from EPA's ToxValDB 9.5 (doi:10.2903/j.efsa.2008.137r).

In brackets after ≈: the same amount, converted by molar mass.

One data set concerns Anas platyrhynchos. Particulars: short-term; oral; feed; mortality.
For another data set, the system named is Apis mellifera. Particulars: acute; duration: 48 hours; oral; unspecified; mortality.
The subject of a further data set is Bibionidae. Particulars: chronic/long-term; duration: 28 days; seedling emergence.
For a further data set, the system named is Canidae. Particulars: chronic; duration: 52 weeks; oral; Dog Other; body weight.
The next data set concerns Daphnia magna. Particulars: chronic/long-term; duration: 21 days; growth.
A further data set deals with Folsomia candida. Particulars: chronic/long-term; duration: 28 days.
Another data set deals with Lepomis macrochirus. Particulars: acute; duration: 96 hours; mortality.
The test system of the next data set is Mus musculus. Particulars: chronic; duration: 2 years; organ weight.
The next data set relates to Oryctolagus sp. Particulars: developmental; development.
A further data set concerns Pimephales promelas. Particulars: chronic/long-term; duration: 278 days; growth.
The subject of a further data set is Rattus norvegicus. Particulars: for NOEC: chronic, M.
In the next data set the test system is Aphidius rhopalosiphi. Nature of the data set: LR50; higher = less toxic. Particulars: not reported; mortality.

As for `O=[N+]([O-])c1cc(C(F)(F)F)c(Cl)c([N+](=O)[O-])c1Nc1ncc(C(F)(F)F)cc1Cl` [Fluazinam], the LC50 was greater than 1230 mg/kg-day in the data set with Anas platyrhynchos; 0.055 µg/mL (≈ 0.118 µM) in the data set with Lepomis macrochirus; greater than 1000 mg/kg in the data set on Tagia sp. (acute, duration: 14 days, mortality). For the same molecule, the LD50 in the data set on Apis mellifera is greater than 100 µg/piece; in the data set with Colinus virginianus (acute, oral, mortality), 1780 mg/kg-day; with Rattus norvegicus (acute, F, mortality) it was 4100 mg/kg-day. The NOEC in the data set with Bibionidae is 0.00625 mg/L; in the data set on Colinus virginianus (reproduction developmental) it was 60.4 mg/kg-day; in the data set on Daphnia magna, 0.0125 mg/L; in the data set on Folsomia candida, less than 1.57 mg/kg; in the data set on Pimephales promelas it was 0.0029 mg/L; in the data set with Rattus norvegicus, 5 mg/kg-day. Further, the NOEC in the data set with Rattus norvegicus (mortality) turned out to be 100 mg/kg-day; in the data set on Tagia sp. (chronic/long-term, duration: 28 days), 0.35 mg/kg. Further, the NOAEL amounted to 1 mg/kg-day in the data set on Canidae, 1.12 mg/kg-day in the data set on Mus musculus and 7 mg/kg-day in the data set with Oryctolagus sp.. The molecule further had an LR50 in the data set on Aphidius rhopalosiphi greater than 200 g/ha.
